Data published in paper PMC4457826 (PLoS Pathogens, 2015).

What was measured:
[1] = tested on: 293T cells; assay: ICP0 input levels with and without USP7, Western blot, 293T cells; type: cell-based; details: input levels of ICP0 with and without USP7, Fig 5A
Description: (§1) 293T cells were grown in Dulbecco’s modified Eagle’s medium (DMEM) (Gibco) with 10% fetal calf serum. 293T cells at 70% confluence in a 10-cm-diameter dish were transfected with 10 μg pCANmycUSP7 expressing WT USP7 or D762R/D764R (MRGR) USP7 or with pcDNA3.1 (negative control), in each case using 20 μl PolyJet (SignaGen Laboratories) transfection reagent. Cells were transferred to a 15-cm-diameter dish 24 h post-transfection and harvested 48 h post-transfection. For experiments on USP7-ICP0 interactions, 293T cells were co-transfected with 1 μg pCANmycUSP7 expressing WT or D762R/D764R (MRGR) USP7 and either 1 μg pCI-110 ICP0 or 1 μg pcDNA3.1. For controls lacking USP7, 1 μg pCI-110 ICP0 was co-transfected with 1 μg pcDNA3.1. In each case 4 μl PolyJet (SignaGen Laboratories) transfection reagent was used.
Protein samples were subjected to SDS-PAGE and transferred to nitrocellulose. […]
293T cells transfected as described above were washed in phosphate-buffered saline (PBS) and lysed on ice for 45 min in a 4x volume of RIPA buffer (50 mM Tris-HCl [pH 8], 150 mM NaCl, 0.1% sodium deoxycholate, 0.5% NP-40) with complete protease inhibitors (Sigma P8340), followed by centrifugation. […] Immunoprecipitated proteins were separated by SDS-PAGE and analyzed by Western blotting, as described above.

[2] = tested on: myc-tagged D762R/D764R (MRGR) USP7; assay: Co-immunoprecipitation with myc-tagged D762R/D764R (MRGR) USP7 from 293T cells; type: cell-based, human; details: anti-myc IP, Western blot, Fig 5
Description: as §1
Protein samples were subjected to SDS-PAGE and transferred to nitrocellulose. Membranes were blocked in 5% skim milk in Tris-buffered saline with 1% Tween (TBS-T) and then incubated with antibodies against ICP0 (H1A027 from Virusys Corporation; 1:5000 dilution), myc (sc-40 from Santa Cruz Biotechnology; 1:5000 dilution), NP95/UHRF1 (A301-470A from Bethyl Laboratories; 1:1000 dilution), GMPS (rabbit serum raised against full-length GMPS [17]; 1:5000 dilution) and actin (MA5-15739 from Pierce; 1:20,000 dilution). After washing, blots were probed with goat anti-mouse or goat anti-rabbit peroxidase (Santa Cruz Biotechnology; 1:5000 dilution) and developed using chemiluminescence reagents (Santa Cruz biotechnology).
293T cells transfected as described above were washed in phosphate-buffered saline (PBS) and lysed on ice for 45 min in a 4x volume of RIPA buffer (50 mM Tris-HCl [pH 8], 150 mM NaCl, 0.1% sodium deoxycholate, 0.5% NP-40) with complete protease inhibitors (Sigma P8340), followed by centrifugation. 1 mg of each clarified lysate was incubated with 1 μg of anti-myc antibody for 1h, followed by incubation with 30 μl of A/G PLUS agarose resin (Santa Cruz Biotechnology) for 2 h at 4°C with end-over-end rotation. The resin was harvested by centrifugation, washed in RIPA buffer, and then boiled in SDS loading buffer. Immunoprecipitated proteins were separated by SDS-PAGE and analyzed by Western blotting, as described above.

[3] = tested on: USP7-NTD; assay: GST pull-down, USP7-NTD; type: binding, human; details: USP7 domain mapping, Fig 1B/1E, listed as GST-ICP0 615–629
Excerpt: (§2) Next we determined which region of USP7-CTD interacted with the ICP0 615–629 peptide. FL-USP7, USP7-CTD as well as Ubl12, Ubl123, Ubl345 and Ubl45 (Fig 1B) were used as prey in GST pull-down assays using GST-ICP0 615–629. FL-USP7 and USP7-CTD were used as positive controls while GST alone and USP7-NTD were used as negative controls.
(§3) The ICP0, GMPS and UHRF1 WT and mutant peptides were cloned into pGEX-2TK and expressed in E. coli BL21(DE3). GST-ICP0 594–775 was obtained from Roger Everett. The GST-ICP0 or GST-GMPS or GST-UHRF1 or GST-ICP0 594–775 cell pellets from 500 ml of LB broth were re-suspended with PBS and lysed using sonication. The cleared lysates were applied to 500 μl of equilibrated glutathione-sepharose beads and incubated with rocking for 60 min at 4°C. Unbound proteins were removed by washing with PBS. Bound proteins were eluted with 50 mM Tris pH 8.0 and 100 mM NaCL containing 30 mM reduced glutathione. Equal amounts (250 μg) of the various USP7 proteins were incubated with 250 μg of the GST-ICP0 or GST-GMPS or GST-UHRF1 or GST-ICP0 594–775 peptides in 50 mM Tris pH 8.0, 100 mM NaCl, 5 mM DTT, 5% glycerol, 0.1 mM Benzamidine and 0.05 mM PMSF, applied to equilibrated glutathione-sepharose beads and incubated overnight with rocking at 4°C. After extensive washing, bound proteins were eluted with 50 mM Tris pH 8.0 and 100 mM NaCl containing 30 mM reduced glutathione.

[4] = tested on: USP7-CTD mutant E759A; assay: GST pull-down, USP7-CTD E759A; type: binding, human
Description: (§4) Fragments representing USP7-CTD Ubl domains were prepared using ligation independent cloning with In-Fusion (Clontech) in p15TV-L. The boundaries of the Ubl domain constructs are Ubl12 (535–776), Ubl123 (535–889), Ubl345 (776–1102), Ubl45 (886–1102) and USP7-CTD (535–1102). Plasmids expressing USP7-NTD, USP7, and myc-USP7 WT (pCANmycUSP7) were described previously. USP7 mutants E759A, D762A, D764A and D762A/D764A in Ubl123 were synthesized (Genscript) and inserted into the pET15b plasmid. USP7 mutants E759A, D762A, D764A, D762A/D764A and D762R/D764R in USP7-CTD were prepared by ACGT Corporation. The D762R/D764R mutant was then sub-cloned into wild-type pCANmycUSP7 for co-IP assays. The mammalian ICP0 expression construct pCI-110 ICP0 was obtained from Roger Everett.
(§5) The ICP0, GMPS and UHRF1 WT and mutant peptides were cloned into pGEX-2TK and expressed in E. coli BL21(DE3). GST-ICP0 594–775 was obtained from Roger Everett. The GST-ICP0 or GST-GMPS or GST-UHRF1 or GST-ICP0 594–775 cell pellets from 500 ml of LB broth were re-suspended with PBS and lysed using sonication. The cleared lysates were applied to 500 μl of equilibrated glutathione-sepharose beads and incubated with rocking for 60 min at 4°C. Unbound proteins were removed by washing with PBS. Bound proteins were eluted with 50 mM Tris pH 8.0 and 100 mM NaCL containing 30 mM reduced glutathione. […]

[5] = molecular target: T1, Ubl123 mutant D762A/D764A (Homo sapiens, UniProt Q93009, D762A/D764A); assay: GST pull-down, Ubl123 D762A/D764A; type: binding; details: Fig 3F
T1 construct: Ubl123 (535–889); (vector pET15b); made in house; host or cells: E. coli BL21(DE3)mgk
T1 sequence (Q93009 535-889 D762A/D764A): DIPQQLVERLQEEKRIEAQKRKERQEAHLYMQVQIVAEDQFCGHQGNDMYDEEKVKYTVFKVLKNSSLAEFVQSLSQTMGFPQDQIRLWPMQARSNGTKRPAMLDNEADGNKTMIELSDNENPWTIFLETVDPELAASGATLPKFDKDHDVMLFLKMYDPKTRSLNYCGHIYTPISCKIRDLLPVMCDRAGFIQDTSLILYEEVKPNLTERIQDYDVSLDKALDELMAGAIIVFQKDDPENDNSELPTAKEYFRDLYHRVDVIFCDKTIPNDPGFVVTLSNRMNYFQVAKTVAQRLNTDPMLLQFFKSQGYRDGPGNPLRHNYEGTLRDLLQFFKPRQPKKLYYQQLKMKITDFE
Description: as §4, §5

[6] = tested on: USP7-CTD mutant D762A/D764A; assay: GST pull-down, USP7-CTD D762A/D764A; type: binding, human
Description: as §4, §3

[7] = molecular target: T2, USP7 Ubl123 (Homo sapiens, UniProt Q93009); assay: GST pull-down, Ubl123; type: binding; details: USP7 domain mapping, Fig 1B/1E, listed as GST-ICP0 615–629
T2 construct: Ubl123 (535–889); His tag (inferred from nickel-NTA purification; vector p15TV-L); made in house; host or cells: E. coli BL21(DE3)mgk
T2 sequence (Q93009 535-889): as the sequence (Q93009 535-889 D762A/D764A) above, with A228D, A230D counted along it
Description: as §4, §3

[8] = tested on: USP7-CTD mutant D762A; assay: GST pull-down, USP7-CTD D762A; type: binding, human
Description: as §4, §3

[9] = tested on: USP7 Ubl45; assay: GST pull-down, Ubl45; type: binding, human; details: USP7 domain mapping, Fig 1B/1E, listed as GST-ICP0 615–629
Description: as §4, §5

[10] = tested on: USP7-CTD mutant D764A; assay: GST pull-down, USP7-CTD D764A; type: binding, human
Description: as §4, §5

[11] = molecular target: T3, Ubl123 mutant D764A (Homo sapiens, UniProt Q93009, D764A); assay: GST pull-down, Ubl123 D764A; type: binding; details: Fig 3F
T3 construct: Ubl123 (535–889); (vector pET15b); made in house; host or cells: E. coli BL21(DE3)mgk
T3 sequence (Q93009 535-889 D764A): as the sequence (Q93009 535-889 D762A/D764A) above, with A228D counted along it
Description: as §4, §5

[12] = molecular target: T4, Ubl123 mutant D762A (Homo sapiens, UniProt Q93009, D762A); assay: GST pull-down, Ubl123 D762A; type: binding; details: Fig 3F
T4 construct: Ubl123 (535–889); (vector pET15b); made in house; host or cells: E. coli BL21(DE3)mgk
T4 sequence (Q93009 535-889 D762A): as the sequence (Q93009 535-889 D762A/D764A) above, with A230D counted along it
Description: as §4, §5

[13] = tested on: USP7 Ubl345; assay: GST pull-down, Ubl345; type: binding, human; details: USP7 domain mapping, Fig 1B/1E, listed as GST-ICP0 615–629
Description: as §4, §5

[14] = molecular target: T5, USP7 Ubl12 (Homo sapiens, UniProt Q93009); assay: GST pull-down, Ubl12; type: binding; details: USP7 domain mapping, Fig 1B/1E, listed as GST-ICP0 615–629
T5 construct: Ubl12 (535–776); His tag (inferred from nickel-NTA purification; vector p15TV-L); made in house; host or cells: E. coli BL21(DE3)mgk
T5 sequence (Q93009 535-776): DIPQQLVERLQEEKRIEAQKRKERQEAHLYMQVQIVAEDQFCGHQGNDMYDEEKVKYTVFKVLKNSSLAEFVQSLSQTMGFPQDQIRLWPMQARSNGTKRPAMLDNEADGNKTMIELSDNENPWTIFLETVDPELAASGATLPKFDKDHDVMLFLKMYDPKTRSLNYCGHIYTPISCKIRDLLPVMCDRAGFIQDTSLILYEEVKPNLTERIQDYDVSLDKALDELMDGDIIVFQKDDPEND
Description: as §4, §5

[15] = molecular target: T6, Ubl123 mutant E759A (Homo sapiens, UniProt Q93009, E759A); assay: GST pull-down, Ubl123 E759A; type: binding; details: Fig 3F
T6 construct: Ubl123 (535–889); (vector pET15b); made in house; host or cells: E. coli BL21(DE3)mgk
T6 sequence (Q93009 535-889 E759A): as the sequence (Q93009 535-889 D762A/D764A) above, with E225A, A228D, A230D counted along it
Description: as §4, §5

[16] = tested on: FL-USP7; assay: GST pull-down, USP7-FL; type: binding, human
Description: The USP7 binding region is found within ICP0 residues 594–633 and mutagenesis studies have shown that K620 is essential for the interaction. In order to facilitate crystallization and structure determination, we set out to identify a shorter peptide that is capable of binding to USP7. To this end, a series of overlapping GST-ICP0 fusions (591–605, 595–609, 599–613, 603–617, 607–621, 611–625, 615–629, 619–633) were prepared (see Fig 1A for sequence details) and used in GST pull-down assays. […] Overall, our GST pull-down assays identified ICP0 residues between 619 and 629 as important mediators of USP7 binding in agreement with a previous study.
as §2, §3

[17] = molecular target: T7, USP7-CTD (Homo sapiens, UniProt Q93009); assay: GST pull-down, USP7-CTD; type: binding
T7 construct: USP7-CTD (535–1102); His tag (inferred from nickel-NTA purification; vector p15TV-L); made in house; host or cells: E. coli BL21(DE3)mgk
T7 sequence (Q93009 535-1102): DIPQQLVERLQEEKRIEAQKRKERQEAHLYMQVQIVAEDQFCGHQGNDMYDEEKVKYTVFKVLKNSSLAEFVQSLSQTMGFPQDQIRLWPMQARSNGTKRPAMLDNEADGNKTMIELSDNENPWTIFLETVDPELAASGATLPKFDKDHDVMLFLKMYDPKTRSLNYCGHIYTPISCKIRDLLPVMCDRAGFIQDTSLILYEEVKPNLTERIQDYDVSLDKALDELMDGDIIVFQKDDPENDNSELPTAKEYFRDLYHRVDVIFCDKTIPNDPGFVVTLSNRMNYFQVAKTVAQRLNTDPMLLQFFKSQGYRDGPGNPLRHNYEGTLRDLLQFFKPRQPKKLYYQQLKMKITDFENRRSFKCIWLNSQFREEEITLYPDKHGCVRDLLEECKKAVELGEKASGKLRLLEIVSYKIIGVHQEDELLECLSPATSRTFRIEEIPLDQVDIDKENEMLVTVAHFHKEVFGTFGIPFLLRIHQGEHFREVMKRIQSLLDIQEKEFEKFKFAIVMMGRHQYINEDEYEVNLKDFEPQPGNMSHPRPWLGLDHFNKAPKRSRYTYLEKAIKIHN
Description: as §4, §3

[18] = tested on: USP7-CTD mutant D762R/D764R; assay: GST pull-down, USP7-CTD D762R/D764R; type: binding, human
Description: as §4, §5

[19] = GST pull-down, USP7 domain mapping, Fig 1B/1E, listed as GST-ICP0 615–629

“ICP0: Herpes simplex virus-1 immediate-early protein ICP0, expressed in 293T cells” was tested, and the “effect of WT USP7 and D762R/D764R mutant on ICP0 level” value [1] was “stabilizing effect on ICP0” and the “recovery with D762R/D764R USP7 (co-IP), in words” value [2] was “decreased (2-fold in multiple experiments) but not abrogated”.

“PRGPRKCARKTRHAE [ICP0 615–629, GST-ICP0 fusion of ICP0 residues 615–629]” was tested, and the “Interaction with ICP0 615-629: USP7-NTD” value [3] was “not USP7-NTD”, the “Binding to USP7-CTD mutant E759A” value [4] was “Binding was abolished” and the “Binding to Ubl123 mutant D762A/D764A” value [5] was “Binding was abolished”. For the same substance, the “Binding to USP7-CTD mutant D762A/D764A” value [6] was “Binding was abolished”, the “Interaction with ICP0 615-629: Ubl123” value [7] was “interacted” and the “Binding to USP7-CTD mutant D762A” value [8] was “Binding was abolished”. The “Interaction with ICP0 615-629: Ubl45” value [9] was “no interaction”, the “Binding to USP7-CTD mutant D764A” value [10] was “Binding was abolished” and the “Binding to Ubl123 mutant D764A” value [11] was “Binding was abolished”. For the same substance, the “Binding to Ubl123 mutant D762A” value [12] was “Binding was abolished”, the “Interaction with ICP0 615-629: Ubl345” value [13] was “no interaction” and the “Interaction with ICP0 615-629: Ubl12” value [14] was “interacted”. For the same substance, the “Binding to Ubl123 mutant E759A” value [15] was “Binding was abolished”, the “Interaction with USP7-FL (overlapping GST-ICP0 peptides)” value ([16]; GST fusions 250 μg + USP7 250 μg, 50 mM Tris pH 8.0, 100 mM NaCl, 5 mM DTT, 5% glycerol, overnight 4°C, Coomassie stained gel, Fig 1A/1C, symbols not defined) was “strongest interaction” and the “Interaction with ICP0 615-629: USP7-FL” value [16, 19] was “FL-USP7 as well as USP7-CTD but not USP7-NTD or GST alone interacted”. The “Interaction with USP7-CTD (overlapping GST-ICP0 peptides)” value ([17]; GST fusions 250 μg + USP7-CTD 250 μg, 50 mM Tris pH 8.0, 100 mM NaCl, 5 mM DTT, 5% glycerol, overnight 4°C, Coomassie stained gel, Fig 1A/1D, symbols not defined) was “strongest interaction” and the “Interaction with ICP0 615-629: USP7-CTD” value [17, 19] was “FL-USP7 as well as USP7-CTD but not USP7-NTD or GST alone interacted”.

“TGKGKWKR [UHRF1 peptide, UHRF1 peptide with KxxxK motif, residues 642–649]” was tested, and the “Binding to USP7-CTD mutant D762A/D764A” value [6] was “disrupted”, the “Binding to USP7-CTD mutant D762A” value [8] was “disrupted” and the “Binding to USP7-CTD mutant D762R/D764R” value [18] was “disrupted”.
